Assay results from US12702692B2, “Therapeutic use of calcium-activated chloride channel peptide activator” (CENTRE NATIONAL DE LA RECHERCHE SCIENTIFIQUE, priority 2020, dated 2026).

Key:
[1] = Tear fluid secretion in dry eye model (surgical removal of exorbital lachrymal gland); assay type: in vivo, Sprague-Dawley rats; settings: N13ter 10 mM topical
Description: Sprague-Dawley rats (males, around 200 g) were purchased from Charles River and adapted one week before processing the experiment. Two-three rats per cage were housed in a controlled environment of 12 hours intervals of light/dark cycles and free access to food and water. Animal experiments were approved by the Animal Care and Use Committee of the University of Barcelona (CEEA) and the Departament de Territori i Sostenibilitat of Generalitat de Catalunya, Catalonia, Spain (319/19; 10935) and followed the ethical guidelines of the International Association for the Study of Pain.
N13ter (also named Nter 13 peptide or N13) ([…] (SEQ ID NO: 2)) and scramble ([…] (SEQ ID NO: 7)) peptides were purchased from GenScript Biotech (Leiden, Netherlands) and provided by CNRS. Both peptides were dissolved in Phosphate Buffered Saline (PBS) at 10 mM and used for topical ocular application (5 ul per eye).
Tear fluid secretion (tearing rate) was measured using phenol red threads (Zone-Quick, Menicon, Nagoya, Japan) placed on the lower eyelid for 30 s without topical anesthesia (Trost, 2007; Acosta 2013). Tearing rate was determined with an accuracy of ±0.5 mm by measurement of the length of the red portion of the thread.
To establish a dry eye model, a similar procedure to those previously described was used (Callejo 2015, Pain; 156(3):483-495, Kovacs, 2016, Pain.; 157(2):399-417). Rats were intraperitoneally anaesthetized with ketamine/xylacine (80:10 mg/kg). […] Tear fluid secretion was measured in both eyes before (basal) and once a week at 1, 2, 3 and 4 weeks after surgery using phenol red threads (Zone-Quick, Menicon, Nagoya, Japan) placed on the lower eyelid for 30 s without topical anesthesia (Trost, 2007; Acosta 2013). Tearing rate was determined with an accuracy of ±0.5 mm by measurement of the length of the red portion of the thread. After tearing rate measurement on week 4, animals were divided in two groups and a solution containing one of the peptides (N13ter or PBS) was topically applied to the ocular surface (5 μl) and tearing rate was measured at 1, 3, 6, 12 and 24 h. […]

[2] = Acute effect on tear fluid secretion (tearing rate, phenol red thread) in naive rats; assay type: in vivo, Sprague-Dawley rats
Description: Sprague-Dawley rats (males, around 200 g) were purchased from Charles River and adapted one week before processing the experiment. Two-three rats per cage were housed in a controlled environment of 12 hours intervals of light/dark cycles and free access to food and water. Animal experiments were approved by the Animal Care and Use Committee of the University of Barcelona (CEEA) and the […] de Territori i Sostenibilitat of Generalitat de Catalunya, Catalonia, Spain (319/19; 10935) and followed the ethical guidelines of the International Association for the Study of Pain. […] (also named Nter 13 peptide or […] NO: 2)) and scramble ([…] NO: 7)) peptides were purchased from GenScript Biotech (Leiden, Netherlands) and provided by CNRS. Both peptides were dissolved in Phosphate Buffered Saline (PBS) at 10 mM and used for topical ocular application (5 ul per eye). Tear fluid secretion (tearing rate) was measured using phenol red threads (Zone-Quick, Menicon, Nagoya, Japan) placed on the lower eyelid for 30 s without topical anesthesia (Trost, 2007; Acosta 2013). Tearing rate was determined with an accuracy of ±0.5 mm by measurement of the length of the red portion of the thread. After habituation of the animals, basal tearing rate was measured in both eyes before any topical application of peptides. Then, animals were divided in different groups and a solution containing vehicle (PBS), amiloride (1 mM), peptide N13 or peptide scramble was topically applied to the ocular surface (5 μl) and tearing rate was measured at 1, 3, 6, 12 and 24 h. Tearing rate measurements were done blind to the treatment received by the animals. Data are presented as mean±standard error of the mean (SEM). Statistical differences between different sets of data were assessed by performing repeated measured One-way ANOVA plus Bonferroni's post-tests (each data point in an experimental group vs. basal values) or repeated measured Two-way ANOVA plus Bonferroni's post-tests (each data point in […] group vs. Scramble or Vehicle group; or point in […] or amiloride groups vs. Vehicle group) using Prism 9 (GraphPad Software, San Diego, CA). The significance level was set at p<0.05 in all statistical analyses.

LARRSPRSSDGKL (SEQ ID NO: 2) (amino acid residues between positions 30 to 42 of the human KCNE1 protein sequence) [N13ter]
effect on tearing rate vs vehicle [1]: statistically significant compared to vehicle group | time to return to basal values [1]: ≤ 24 h | tearing rate at 3 h (peak) ([1]; n=14 eyes, 5 weeks basal 4.04±0.49 mm): 6.54±0.78 mm | tearing rate at 6 h ([2]; 10 mM topical, 5 μl per eye, n=20 eyes, basal 7.65±0.49 mm (N13ter)): 9.65±0.57 mm | tearing rate at 12 h ([2]; 10 mM topical, 5 μl per eye, n=20 eyes, basal 7.65±0.49 mm (N13ter), 8.10±0.54 mm (Scramble)): 8.85±0.73 mm | tearing rate at 12 h ([2]; N13ter 10 mM topical, vehicle/amiloride study, n=12 eyes, basal 4.53±0.43): 6.66±0.64 mm | time after application at which the enhancing effect becomes significant ([2]; N13ter 10 mM vs scramble peptide): 6 to 12 h | effect on tearing rate compared with Vehicle ([2]; N13ter 10 mM, amiloride 1 mM, vehicle PBS): significant increase in tearing rate | effect on tearing rate ([2]; N13ter vs Scramble study, both 10 mM topical): small but significant increase in tearing rate | effect on tearing rate vs vehicle, pooled data ([2]; all N13ter 10 mM studies pooled, n=32 eyes, normalized to basal): statistically significant effect at 1, 3, 6, 12 and 24 h, obtaining the maximal increase at 6 and 12 h
